The term Kd denotes the constant that tells how readily two partners part at equilibrium. A lower Kd goes with tighter binding.

A short description of one test: Binding affinity to Escherichia coli J96 FimH lectin domain (Phe1 to Thr158) expressed in Escherichia coli C43 (DE3) by isothermal titration calorimetry assay. For orientation: ITC needs no label: the signal is the heat of the interaction.
Molecule `CCCCCCCO[C@H]1O[C@H](CO)[C@@H](O)[C@H](O)[C@@H]1O` came in with a Kd of 7.3 nM. The same measure, in the same setting: with `COCC#Cc1ccc(O[C@H]2O[C@H](CO)[C@@H](O)[C@H](O)[C@@H]2O)cc1` the figure was 59.5 nM. On the same count and under the same terms, with `CCCCO[C@H]1O[C@H](CO)[C@@H](O)[C@H](O)[C@@H]1O` [BUTYLALPHAMAN] the figure was 154 nM.

The next test is described as follows: Binding affinity to Escherichia coli J96 FimH lectin domain (Phe1 to Thr158) expressed in Escherichia coli C43 (DE3) by surface plasmon resonance analysis.
In turn, `CCCCCCCO[C@H]1O[C@H](CO)[C@@H](O)[C@H](O)[C@@H]1O` registered a Kd of 3.1 nM. The same measure, in the same setting: with `OCC#Cc1ccc(O[C@H]2O[C@H](CO)[C@@H](O)[C@H](O)[C@@H]2O)cc1` the figure was 36.9 nM; with `CCCSCCCO[C@H]1O[C@H](CO)[C@@H](O)[C@H](O)[C@@H]1O`, 14 nM. Molecule `O=C(C[C@H]1O[C@H](CO)[C@@H](O)[C@H](O)[C@@H]1O)Nc1nc2ccccc2s1` displayed a Kd of 59 nM. The same measure, in the same setting: as for `O=C(C[C@H]1O[C@H](CO)[C@@H](O)[C@H](O)[C@@H]1O)Nc1nc2ccccc2[nH]1`, the figure is 4200 nM; as for `O=C(C[C@H]1O[C@H](CO)[C@@H](O)[C@H](O)[C@@H]1O)Nc1ccccc1`, 372 nM; as for `O=C(C[C@H]1O[C@H](CO)[C@@H](O)[C@H](O)[C@@H]1O)Nc1ccc(O)cc1`, 328 nM. Same read-out and setting: with `O=C(C[C@H]1O[C@H](CO)[C@@H](O)[C@H](O)[C@@H]1O)Nc1ccc(Cl)cc1` the figure was 113 nM. The molecule `COc1ccc(C#CCO[C@H]2O[C@H](CO)[C@@H](O)[C@H](O)[C@@H]2O)cc1` returned a Kd of 53 nM. Same read-out and setting: as for `CCCCO[C@H]1O[C@H](CO)[C@@H](O)[C@H](O)[C@@H]1O` [BUTYLALPHAMAN], the figure is 151 nM.
